Assays:
Type in all cases: in vivo
[1] = tested on: Alopecurus myosuroides (ALOMY); experiment: Post-emergence biological efficacy, glasshouse pot test; settings: 312 h, Rate 1,000 g/ha, post-emergence spray, evaluated after 13 days (100=total damage to plant; 0=no damage to plant), read-out: Percentage damage caused to weed species, post-emergence, ALOMY
In short: (§1)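 Plants were sown in standard soil and grown 8 days in a glasshouse (24/16° C. day/night, 14 hours light, 65% humidity), then sprayed post-emergence at 1000 or 250 g/ha from acetone/water (50:50) with 0.5% Tween 20. Damage was scored visually after 13 days (0 = none, 100 = total).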

[2] = tested on: Solanum nigrum (SOLNI); experiment: as above; settings: 312 h, Rate 1,000 g/ha, post-emergence spray, evaluated after 13 days (100=total damage to plant; 0=no damage to plant), read-out: Percentage damage caused to weed species, post-emergence, SOLNI
In short: as §1

[3] = tested on: Amaranthus retoflexus (AMARE); experiment: as above; settings: Amaranthus retroflexus, 312 h; Rate 1,000 g/ha; post-emergence spray; evaluated after 13 days (100=total damage to plant; 0=no damage to plant); read-out: Percentage damage caused to weed species, post-emergence, AMARE
In short: as §1

[4] = tested on: Echinochloa crus-galli (ECHCG); experiment: as above; settings: 312 h, Rate 1,000 g/ha, post-emergence spray, evaluated after 13 days (100=total damage to plant; 0=no damage to plant), read-out: Percentage damage caused to weed species, post-emergence, ECHCG
In short: as §1

[5] = tested on: Setaria faberi (SETFA); experiment: as above; settings: 312 h, Rate 1,000 g/ha, post-emergence spray, evaluated after 13 days (100=total damage to plant; 0=no damage to plant), read-out: Percentage damage caused to weed species, post-emergence, SETFA
In short: as §1

[6] = tested on: Ipomea hederaceae (IPOHE); experiment: as above; settings: Ipomoea hederacea, 312 h; Rate 1,000 g/ha; post-emergence spray; evaluated after 13 days (100=total damage to plant; 0=no damage to plant); read-out: Percentage damage caused to weed species, post-emergence, IPOHE
In short: as §1

[7] = tested on: Alopecurus myosuroides (ALOMY); experiment: Pre-emergence biological efficacy, glasshouse pot test; settings: 312 h, pre-emergence, rate 1,000 g/ha, evaluated after 13 days (100=total damage to plant; 0=no damage), read-out: Percentage damage caused to weed species, ALOMY
In short: (§2)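 Compound was applied as a spray one day after sowing, at a final dose of 1000 or 250 g/ha. Plants grew under 14 h light, 24/16 °C and 65% humidity, and injury was assessed on day 13 on a 0–100 scale.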

[8] = tested on: Solanum nigrum (SOLNI); experiment: as above; settings: 312 h, pre-emergence, rate 1,000 g/ha, evaluated after 13 days (100=total damage to plant; 0=no damage), read-out: Percentage damage caused to weed species, SOLNI
In short: as §2

[9] = tested on: Amaranthus retoflexus (AMARE); experiment: as above; settings: Amaranthus retroflexus, 312 h; pre-emergence, rate 1,000 g/ha, evaluated after 13 days (100=total damage to plant; 0=no damage); read-out: Percentage damage caused to weed species, AMARE
In short: as §2

[10] = tested on: Echinochloa crus-galli (ECHCG); experiment: as above; settings: 312 h, pre-emergence, rate 1,000 g/ha, evaluated after 13 days (100=total damage to plant; 0=no damage), read-out: Percentage damage caused to weed species, ECHCG
In short: as §2

[11] = tested on: Setaria faberi (SETFA); experiment: as above; settings: 312 h, pre-emergence, rate 1,000 g/ha, evaluated after 13 days (100=total damage to plant; 0=no damage), read-out: Percentage damage caused to weed species, SETFA
In short: as §2

[12] = tested on: Ipomea hederaceae (IPOHE); experiment: as above; settings: Ipomoea hederacea, 312 h; pre-emergence, rate 1,000 g/ha, evaluated after 13 days (100=total damage to plant; 0=no damage); read-out: Percentage damage caused to weed species, IPOHE
In short: as §2

| SMILES | pest or weed control at 1000 g/ha [1] [%] | pest or weed control at 1000 g/ha [2] [%] | pest or weed control at 1000 g/ha [3] [%] | pest or weed control at 1000 g/ha [4] [%] | pest or weed control at 1000 g/ha [5] [%] | pest or weed control at 1000 g/ha [6] [%] | pest or weed control at 1000 g/ha [7] [%] | pest or weed control at 1000 g/ha [8] [%] | pest or weed control at 1000 g/ha [9] [%] | pest or weed control at 1000 g/ha [10] [%] | pest or weed control at 1000 g/ha [11] [%] | pest or weed control at 1000 g/ha [12] [%] |
| --- | --- | --- | --- | --- | --- | --- | --- | --- | --- | --- | --- | --- |
| COC(=O)c1nc(-c2ccc(Cl)cc2)nc(NCc2ccccc2)c1Cl [Compound 40-60, 5-Chloro-2-(4-chlorophenyl)-6-methoxycarbonyl-4-(phenylmethylamino) pyrimidine] | 0 | 70 | 60 | 0 | 0 | 100 | 20 | 30 | 90 | 50 | 0 | 0 |
| C=Cc1c(NCc2ccco2)nc(-c2ccc(Cl)cc2)nc1C(=O)OC [Compound 67-125, 2-(4-Chlorophenyl)-5-ethenyl-4-(furan-2-ylmethylamino)-6-methoxycarbonyl-pyrimidine] | 30 | 90 | 100 | 40 | 0 | 80 | 50 | 20 | 100 | 20 | 10 | 40 |
| COc1c(Cl)ccc(-c2nc(NCC3CC3)c(Cl)c(C(=O)O)n2)c1F [Compound 109-43, 5-Chloro-2-(4-chloro-2-fluoro-3-methoxyphenyl)-4-cyclopropylmethyl-aminopyrimidine-6-carboxylic acid] | 90 | 100 | 100 | 100 | 90 | 80 | 10 | 90 | 100 | 30 | 60 | 70 |
| COc1c(Cl)ccc(-c2nc(NCc3ccco3)c(Cl)c(C(=O)O)n2)c1F [Compound 109-125, 5-Chloro-2-(4-chloro-2-fluoro-3-methoxyphenyl)-4-(furan-2-yl-methyl-amino)pyrimidine-6-carboxylic acid] | 70 | 90 | 100 | 80 | 90 | 100 | 70 | 100 | 100 | 90 | 90 | 100 |
| COC(=O)c1nc(-c2ccc(Cl)c(OC)c2F)nc(NCC2CC2)c1Cl [Compound 112-43, 5-Chloro-2-(4-chloro-2-fluoro-3-methoxy-phenyl)-4-cyclo-propylmethylamino-6-methoxycarbonyl-pyrimidine] | 40 | 90 | 100 | 80 | 80 | 70 | 40 | 70 | 60 | 60 | 30 | 80 |
| COC(=O)c1nc(-c2ccc(Cl)c(OC)c2F)nc(NCc2ccco2)c1Cl [Compound 112-125, 5-Chloro-2-(4-chloro-2-fluoro-3-methoxyphenyl)-4-(furan-2-yl-methyl-amino)-6-methoxy-carbonylpyrimidine] | 80 | 100 | 100 | 90 | 100 | 90 | 70 | 90 | 100 | 100 | 90 | 100 |
| COC(=O)c1nc(-c2ccc(Cl)c(OC)c2F)nc(NCc2ccc(C)o2)c1Cl [Compound 112-135, 5-Chloro-2-(4-chloro-2-fluoro-3-methoxyphenyl)-6-methoxycarbonyl-4-[(5-methylfuran-2-yl)methylamino)-pyrimidine] | 70 | 90 | 100 | 90 | 90 | 80 | 70 | 100 | 100 | 90 | 90 | 100 |
| C=Cc1c(NCc2ccco2)nc(-c2ccc(Cl)c(OC)c2F)nc1C(=O)OC [Compound 139-125, 2-(4-Chloro-2-fluoro-3-methoxyphenyl)-5-ethenyl-4-(furan-2-ylmethylamino)-6-methoxycarbonyl-pyrimidine] | 80 | 90 | 100 | 80 | 90 | 80 | 70 | 100 | 100 | 80 | 80 | 90 |
| CCCN(Cc1ccccc1)c1nc(C2CC2)nc(C(=O)OC)c1Cl [Compound 145-60] | 20 | 80 | 90 | 40 | 70 | 80 | 0 | 70 | 100 | 0 | 10 | 40 |
| CCCN(Cc1ccccc1F)c1nc(C2CC2)nc(C(=O)OC)c1Cl [Compound 145-64, 5-Chloro-2-cyclopropyl-4-[N-(2-fluorophenylmethyl)-N-prop-1-yl-amino]-6-methoxy-carbonylpyrimidine] | 0 | 80 | 90 | 30 | 40 | 70 | 0 | 70 | 70 | 0 | 0 | 70 |
| CCCN(Cc1ccc(C)cc1)c1nc(C2CC2)nc(C(=O)OC)c1Cl [Compound 145-73, 5-Chloro-2-cyclopropyl-6-methoxycarbonyl-4-[N-(4-methyl-phenylmethyl)-N-prop-1-yl-amino]-pyrimidine] | 10 | 50 | 80 | 20 | 40 | 70 | 30 | 70 | 100 | 30 | 20 | 20 |

Source: patent US20110086759A1, “CHEMICAL COMPOUNDS” (SYNGENTA CROP PROTECTION, INC., priority 2007, published 2011)
